Measured values reported in patent publication US20200405604A1, “COSMETIC COMPOSITION COMPRISING 4-(3-ETHOXY-4-HYDROXYPHENYL)-2-BUTANONE” (L'OREAL, priority 2011, published 2020).

Assay: Solubility test in test solvents
Format: physicochemical
Description: The test solvent was poured into a beaker, an amount of the compound 4-(3-ethoxy-4-hydroxyphenyl)-2-butanone was added with magnetic stirring and the mixture was left to stand for between 1 hour and 24 hours. The mixture was then heated to 50° C. and then cooled to room temperature (25° C.) over 24 hours. The system was then observed to see if the amount of compound introduced recrystallized or remained dissolved.
The amount of compound that can be dissolved in the test solvent was determined in this manner. The maximum value corresponds to the amount at and above which the ester compound stops dissolving in the evaluated solvent.

CCOc1cc(CCC(C)=O)ccc1O [4-(3-ethoxy-4-hydroxyphenyl)-2-butanone]
Solubility (in words) (in water or glycerol): very sparingly soluble | Dissolution (in words) (with ethanol, 1,2-propylene glycol, 1,3-propanediol, PEG-8 and propylene carbonate): very satisfactorily dissolved | Dissolution (in words) (with glycerol): very sparingly dissolved
